The supplement of paper PMC10307832

Tests used:
Assay in all cases: relative viability (nuclei count vs DMSO), 5 days (fraction); higher = more cells survive
IPA-3 + Crizotinib = compound: C1=CC=C2C(=C1)C=CC(=C2SSC3=C(C=CC4=CC=CC=C43)O)O [IPA-3] + C[C@@H](Oc1cc(-c2cnn(C3CCNCC3)c2)cnc1N)c1c(Cl)ccc(F)c1Cl [Crizotinib] (partner 1 µM)
How it was run: (§1)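 A single step with final 0.05% Triton X-100, 1% formaldehyde and 1 ug/ml Hoechst fixed the cells and stained nuclei 5 days after treatment. Lung cancer cell lines in 1536-well plates had been treated by pin tool the day after seeding with one drug alone or a fixed anchor-drug dose plus five library-drug doses (not always all listed) in √10 steps, and nuclei were counted on 4× images. Relative viability is the ratio of nuclei in treated wells to nuclei in vehicle wells, taken as the median of duplicate plates.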

[1] = compound: Cc1ccc(-n2nc(C(C)(C)C)cc2NC(=O)Nc2ccc(OCCN3CCOCC3)c3ccccc23)cc1 [Doramapimod] + CC(=O)c1c(C)c2cnc(Nc3ccc(N4CCNCC4)cn3)nc2n(C2CCCC2)c1=O [Palbociclib] (partner 0.5 µM)
How it was run: as §1

RAF265 + Vorinostat = compound: Cn1c(Nc2ccc(C(F)(F)F)cc2)nc2cc(Oc3ccnc(-c4ncc(C(F)(F)F)[nH]4)c3)ccc21 [RAF265] + O=C(CCCCCCC(=O)Nc1ccccc1)NO [Vorinostat] (partner 1 µM)
How it was run: as §1

| Cell Line | relative viability (IPA-3 + Crizotinib; first compound 0.2 µM) | relative viability (IPA-3 + Crizotinib; first compound 0.6325 µM) | relative viability (IPA-3 + Crizotinib; first compound 2 µM) | relative viability (IPA-3 + Crizotinib; first compound 6.325 µM) | relative viability (IPA-3 + Crizotinib; first compound 20 µM) | relative viability ([1]; first compound 0.02 µM) | relative viability ([1]; first compound 0.06325 µM) | relative viability ([1]; first compound 0.2 µM) | relative viability ([1]; first compound 0.6325 µM) | relative viability ([1]; first compound 2 µM) | relative viability (RAF265 + Vorinostat; first compound 0.01 µM) | relative viability (RAF265 + Vorinostat; first compound 0.03162 µM) | relative viability (RAF265 + Vorinostat; first compound 0.1 µM) | relative viability (RAF265 + Vorinostat; first compound 1 µM) | relative viability (RAF265 + Vorinostat; first compound 0.3162 µM) |
| --- | --- | --- | --- | --- | --- | --- | --- | --- | --- | --- | --- | --- | --- | --- | --- |
| PC-14 | 0.938 | 0.858 | 1.08 | 0.839 | 1 | 0.552 | 0.594 | 0.487 | 0.552 | 0.508 | 0.743 | 0.642 | 0.632 | 0.619 | – |
| NCI-H2085 | 0.89 | 0.912 | 0.876 | 0.931 | 0.995 | 0.525 | 0.527 | 0.5 | 0.52 | 0.529 | 0.891 | 0.714 | 0.82 | 0.803 | 0.788 |
| NCI-H2170 | 1.24 | 1.11 | 1.18 | 1.16 | 1.33 | 0.381 | 0.421 | 0.413 | 0.387 | 0.377 | 0.859 | 0.859 | 0.761 | 0.521 | 0.393 |
| HCC-78 | 0.341 | 0.341 | 0.365 | 0.322 | 0.399 | 0.469 | 0.511 | 0.505 | 0.509 | 0.568 | 0.459 | 0.485 | 0.464 | 0.406 | 0.645 |
| NCI-H2126 | 1.05 | 0.983 | 1.05 | 1.03 | 1.14 | 0.378 | 0.352 | 0.373 | 0.336 | 0.326 | 0.841 | 0.771 | 0.733 | 0.464 | 0.673 |
| H3255 | 1.11 | 0.86 | 0.962 | 0.749 | 1.03 | 0.334 | 0.302 | 0.318 | 0.292 | 0.345 | 0.889 | 0.748 | 0.804 | 0.413 | 0.231 |
| HCC-15 | 0.812 | 0.855 | 0.825 | 0.776 | 0.886 | 0.548 | 0.772 | 0.755 | 0.686 | 0.525 | 0.803 | 0.937 | 0.867 | 0.551 | 0.782 |
| NCI-H661 | 1.06 | 0.847 | 1.08 | 0.988 | 1.03 | 0.447 | 0.407 | 0.404 | 0.427 | 0.39 | 0.834 | 0.698 | 0.639 | 0.568 | 0.554 |
